From the supplement of paper PMC8149375

Key:
Details in all cases: treatment: drug + dasatinib (fixed dose, not stated); 5 days
CAKI-1 [1] = assay: AUC of dose-response viability curve, drug + dasatinib, normalised to DMSO (arbitrary (AUC of normalised viability)); higher = less growth inhibition
Protocol: (§1)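 Primary HTS combination arm: 8 RCC cell lines treated with 8 doses (up to 10 uM) of each library drug plus a fixed dose of dasatinib (dose not stated) for 5 days; viability read by CellTiter-Glo and normalised to DMSO. GI50 was fitted with XLfit, AUC is the area under the dose-response curve, and minimum viability is the lowest fraction of DMSO viability across doses.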

SN12C [2] = assay: as above
Protocol: as §1

786-O [3] = assay: as above
Protocol: as §1

769-P [4] = assay: as above
Protocol: as §1

A498 [5] = assay: as above
Protocol: as §1

ACHN [6] = assay: as above
Protocol: as §1

UO-31 [7] = assay: as above
Protocol: as §1

TK-10 [8] = assay: as above
Protocol: as §1

CAKI-1 [9] = assay: minimum viability across doses, drug + dasatinib, relative to DMSO (fraction); higher = less growth inhibition
Protocol: as §1

SN12C [10] = assay: as above
Protocol: as §1

786-O [11] = assay: as above
Protocol: as §1

769-P [12] = assay: as above
Protocol: as §1

A498 [13] = assay: as above
Protocol: as §1

ACHN [14] = assay: as above
Protocol: as §1

UO-31 [15] = assay: as above
Protocol: as §1

TK-10 [16] = assay: as above
Protocol: as §1

CAKI-1 [17] = assay: GI50 of drug in presence of dasatinib; higher = less potent
Protocol: as §1

SN12C [18] = assay: as above
Protocol: as §1

786-O [19] = assay: as above
Protocol: as §1

769-P [20] = assay: as above
Protocol: as §1

A498 [21] = assay: as above
Protocol: as §1

ACHN [22] = assay: as above
Protocol: as §1

UO-31 [23] = assay: as above
Protocol: as §1

TK-10 [24] = assay: as above
Protocol: as §1

Structure (SMILES)	GI50 of drug (786-O [19]) [nM]	GI50 of drug (ACHN [22]) [nM]	AUC of dose-response viability curve (CAKI-1 [1])	AUC of dose-response viability curve (SN12C [2])	AUC of dose-response viability curve (786-O [3])	AUC of dose-response viability curve (769-P [4])	AUC of dose-response viability curve (A498 [5])	AUC of dose-response viability curve (ACHN [6])	AUC of dose-response viability curve (UO-31 [7])	AUC of dose-response viability curve (TK-10 [8])	minimum viability across doses (CAKI-1 [9])	minimum viability across doses (SN12C [10])	minimum viability across doses (786-O [11])	minimum viability across doses (769-P [12])	minimum viability across doses (A498 [13])	minimum viability across doses (ACHN [14])	minimum viability across doses (UO-31 [15])	minimum viability across doses (TK-10 [16])	GI50 of drug (CAKI-1 [17]) [nM]	GI50 of drug (SN12C [18]) [nM]	GI50 of drug (769-P [20]) [nM]	GI50 of drug (A498 [21]) [nM]	GI50 of drug (UO-31 [23]) [nM]	GI50 of drug (TK-10 [24]) [nM]
COc1cc2c(Oc3ccc(NC(=O)C4(C(=O)Nc5ccc(F)cc5)CC4)cc3F)ccnc2cc1OCCCN1CCOCC1 + Cc1nc(Nc2ncc(C(=O)Nc3c(C)cccc3Cl)s2)cc(N2CCN(CCO)CC2)n1 [dasatinib]	496	112	1.48	1.56	1.65	1.78	2.47	1.36	1.95	1.94	0.00437	0.0105	0.00858	0.00976	0.0345	0.00242	0.011	0.00508	135	226	458	1430	393	558
Nc1nc(Nc2ccc(S(N)(=O)=O)cc2)nn1C(=O)c1c(F)cccc1F + Cc1nc(Nc2ncc(C(=O)Nc3c(C)cccc3Cl)s2)cc(N2CCN(CCO)CC2)n1 [dasatinib]	343	334	1.99	2.48	1.7	2.24	2.82	1.56	3.26	2.57	0.0394	0.142	0.00366	0.0371	0.269	0.00508	0.00972	0.623	1250	3690	3160	4680	4120	> 10000
COc1ncc(-c2ccc3nccc(-c4ccnnc4)c3c2)cc1NS(=O)(=O)c1ccc(F)cc1F + Cc1nc(Nc2ncc(C(=O)Nc3c(C)cccc3Cl)s2)cc(N2CCN(CCO)CC2)n1 [dasatinib]	4.97	8.21	0.66	1.1	0.564	0.957	1.82	0.822	0.993	0.955	0.00939	0.104	0.00295	0.0228	0.158	0.0717	0.00632	0.0271	7.86	19	18.4	168	28.1	16.5
C[C@@H]1CN(CC(=O)Nc2ccc3c(c2)Cc2cccc(-c4cc(=O)cc(N5CCOCC5)o4)c2S3)C[C@H](C)O1 + Cc1nc(Nc2ncc(C(=O)Nc3c(C)cccc3Cl)s2)cc(N2CCN(CCO)CC2)n1 [dasatinib]	3470	4110	2.15	2.48	2.51	2.37	3.33	2.04	4.18	2.69	0.165	0.511	0.282	0.373	0.771	0.381	0.213	0.589	3790	> 10000	5520	> 10000	6110	> 10000
O=c1cc(-c2cccc3c2Sc2ccccc2S3)oc(N2CCOCC2)c1 + Cc1nc(Nc2ncc(C(=O)Nc3c(C)cccc3Cl)s2)cc(N2CCN(CCO)CC2)n1 [dasatinib]	> 10000	20	2.12	2.48	2.43	2.38	3.16	1.86	3.22	2.57	0.31	0.659	0.561	0.635	0.747	0.449	0.7	0.682	4310	> 10000	> 10000	> 10000	> 10000	> 10000
CCn1cc(-c2ccnc3[nH]c(-c4cccc(CN(C)C)c4)cc23)c(-c2ccc(NC(=O)N(C)C)cc2)n1 + Cc1nc(Nc2ncc(C(=O)Nc3c(C)cccc3Cl)s2)cc(N2CCN(CCO)CC2)n1 [dasatinib]	28.4	73.7	1.42	1.61	1.39	2.05	2.97	1.33	3.82	2.03	0.0134	0.00824	0.0106	0.0742	0.131	0.00393	0.0175	0.0524	96.9	128	785	2170	2870	635
COc1ccc(-c2ccc3c(N4CCOCC4)nc(N4C[C@@H](C)O[C@@H](C)C4)nc3n2)cc1CO + Cc1nc(Nc2ncc(C(=O)Nc3c(C)cccc3Cl)s2)cc(N2CCN(CCO)CC2)n1 [dasatinib]	478	50.7	1.56	2.03	1.93	1.75	2.77	1.33	2.56	1.87	0.0643	0.196	0.176	0.136	0.252	0.0839	0.0195	0.168	250	482	360	1830	1100	379

Second part, led by results:

GI50 of drug (786-O [19]) [nM]	GI50 of drug (ACHN [22]) [nM]	Structure (SMILES)	AUC of dose-response viability curve (CAKI-1 [1])	AUC of dose-response viability curve (SN12C [2])	AUC of dose-response viability curve (786-O [3])	AUC of dose-response viability curve (769-P [4])	AUC of dose-response viability curve (A498 [5])	AUC of dose-response viability curve (ACHN [6])	AUC of dose-response viability curve (UO-31 [7])	AUC of dose-response viability curve (TK-10 [8])	minimum viability across doses (CAKI-1 [9])	minimum viability across doses (SN12C [10])	minimum viability across doses (786-O [11])	minimum viability across doses (769-P [12])	minimum viability across doses (A498 [13])	minimum viability across doses (ACHN [14])	minimum viability across doses (UO-31 [15])	minimum viability across doses (TK-10 [16])	GI50 of drug (CAKI-1 [17]) [nM]	GI50 of drug (SN12C [18]) [nM]	GI50 of drug (769-P [20]) [nM]	GI50 of drug (A498 [21]) [nM]	GI50 of drug (UO-31 [23]) [nM]	GI50 of drug (TK-10 [24]) [nM]
> 10000	9070	CNC(=O)c1ccc(-c2cnc3ncc(Cc4ccc5ncccc5c4)n3n2)cc1F + Cc1nc(Nc2ncc(C(=O)Nc3c(C)cccc3Cl)s2)cc(N2CCN(CCO)CC2)n1 [dasatinib]	2.26	2.42	2.19	2.42	3.63	2.05	4.11	2.44	0.571	0.659	0.576	0.457	0.918	0.497	0.991	0.656	> 10000	> 10000	7570	> 10000	> 10000	> 10000
136	101	O=C1NC(=O)/C(=C/c2ccc3nccc(-c4ccncc4)c3c2)S1 + Cc1nc(Nc2ncc(C(=O)Nc3c(C)cccc3Cl)s2)cc(N2CCN(CCO)CC2)n1 [dasatinib]	1.29	1.76	1.53	1.8	2.01	1.45	2.17	2.17	0.0502	0.243	0.00524	0.261	0.138	0.108	0.0612	0.318	75	304	294	383	500	930
213	456	CCn1c(-c2nonc2N)nc2c(C#CC(C)(C)O)ncc(OC[C@H]3CCCNC3)c21 + Cc1nc(Nc2ncc(C(=O)Nc3c(C)cccc3Cl)s2)cc(N2CCN(CCO)CC2)n1 [dasatinib]	2.29	2.45	1.74	2.43	3.07	1.8	2.8	2.22	0.305	0.66	0.189	0.627	0.802	0.274	0.642	0.421	2670	> 10000	> 10000	> 10000	> 10000	1930
> 10000	> 10000	CCc1cc(Nc2nccc(-c3c(-c4ccc(OC)c(C(=O)Nc5c(F)cccc5F)c4)nc4ccccn34)n2)c(OC)cc1N1CCC(N2CCN(S(C)(=O)=O)CC2)CC1 + Cc1nc(Nc2ncc(C(=O)Nc3c(C)cccc3Cl)s2)cc(N2CCN(CCO)CC2)n1 [dasatinib]	2.19	2.4	2.71	2.19	3.42	1.97	3.28	2.59	0.406	0.644	0.641	0.445	0.849	0.488	0.86	0.678	3060	> 10000	3100	> 10000	> 10000	> 10000
> 10000	69.5	c1ccc2c(CCNc3ccc(Nc4ccncc4)cc3)c[nH]c2c1 + Cc1nc(Nc2ncc(C(=O)Nc3c(C)cccc3Cl)s2)cc(N2CCN(CCO)CC2)n1 [dasatinib]	1.49	1.86	1.39	1.69	2.32	1.1	2.3	1.83	0.0392	0.00337	0.00475	0.0334	0.0451	0.00193	0.0188	0.00918	143	672	280	748	372	531
686	434	CNC(=O)c1c(F)cccc1Nc1nc(Nc2cc3c(cc2OC)CCN3C(=O)CN(C)C)nc2[nH]ccc12 + Cc1nc(Nc2ncc(C(=O)Nc3c(C)cccc3Cl)s2)cc(N2CCN(CCO)CC2)n1 [dasatinib]	1.87	2.11	1.84	1.96	3.85	1.62	3.45	2.17	0.00312	0.004	0.00553	0.0146	0.015	0.0022	0.0173	0.189	919	1520	1300	8320	2920	1660
> 10000	> 10000	Cn1cc(-c2ccc3nnc(C(F)(F)c4ccc5ncccc5c4)n3n2)cn1 + Cc1nc(Nc2ncc(C(=O)Nc3c(C)cccc3Cl)s2)cc(N2CCN(CCO)CC2)n1 [dasatinib]	2.24	2.34	2.54	2.32	3.2	1.87	3.52	2.6	0.592	0.614	0.566	0.469	0.854	0.499	0.923	0.646	> 10000	> 10000	7400	> 10000	> 10000	> 10000
